Assay results from patent US10464946B2, “Crystalline forms of thienopyrimidine compound” (HANMI PHARM. CO., LTD., priority 2015, dated 2019).

Legend:
[1] = Dynamic vapor sorption (DVS) hygroscopicity; assay type: physicochemical; conditions: relative humidity of 10% to 90%; for stability from the hygroscopic aspect: expected from the DVS result
Method: Dynamic vapor sorption (DVS) analysis was performed in a DVS advantage (Surface measurement system, United Kingdom) analyzer at 25° C. with a relative humidity of 0% to 90%. A sample in an amount of 10 mg was placed into a wire-mesh vapor sorption balance pan and then attached to a DVS advantage dynamic vapor sorption balance via surface measurement systems. Until a stable weight was achieved (99.5% completion of steps), the sample was applied to a ramping profile with a relative humidity of 10% to 90% with a 10% increase of the sample while maintaining the sample in each step. Upon completion of the sorption cycle, the sample was dried using the same process while maintaining a relative humidity of […]. The changes in the sample weight during the adsorption/desorption cycle (repeated 3 times) were recorded and the hygroscopicity of the sample was measured.

[2] = Storage stability under long-term and accelerated conditions; assay type: physicochemical; conditions: for stability under a long-term storage condition: temperature of 25° C. and relative humidity of 60%; for stability under an accelerated condition: temperature of 40° C. and relative humidity of 75%
Method: High performance liquid chromatography (HPLC) analysis was performed for the purposes of analyzing purity and contents such as a stability test, etc., using an Agilent 1100/1200 series HPLC Systems (Agilent, USA) analyzer, and the conditions used for HPLC were as follows.

Row | Structure (SMILES) | stability from the hygroscopic aspect [1] | stability under a long-term storage condition [2] | stability under an accelerated condition [2] | water content / hygroscopic level in the DVS ([1]; 25° C.)
1 | C=CC(=O)Nc1cccc(Oc2nc(Nc3ccc(N4CCN(C)CC4)cc3)nc3ccsc23)c1 [Example 4, N-(3-(2-(4-(4-methylpiperazin-1-yl)phenylamino)thieno[3,2-d]pyrimidin-4-yloxy)phenyl)acrylamide] | very stable | very stable | very stable | 
2 | C=CC(=O)Nc1cccc(Oc2nc(Nc3ccc(N4CCN(C)CC4)cc3)nc3ccsc23)c1 [Comparative Example 1, N-(3-(2-(4-(4-methylpiperazin-1-yl)phenylamino)thieno[3,2-d]pyrimidin-4-yloxy)phenyl)acrylamide, reference compound] | unstable |  |  | 
3 | C=CC(=O)Nc1cccc(Oc2nc(Nc3ccc(N4CCN(C)CC4)cc3)nc3ccsc23)c1 [Example 3, N-(3-(2-(4-(4-methylpiperazin-1-yl)phenylamino)thieno[3,2-d]pyrimidin-4-yloxy)phenyl)acrylamide] | very stable | very stable | very stable | 
4 | C=CC(=O)Nc1cccc(Oc2nc(Nc3ccc(N4CCN(C)CC4)cc3)nc3ccsc23)c1 [Example 1, N-(3-(2-(4-(4-methylpiperazin-1-yl)phenylamino)thieno[3,2-d]pyrimidin-4-yloxy)phenyl)acrylamide] | stable |  |  | about 1.5%
